{"source": "patent US20080153792A1", "about": "“Drug Identification and Treatment Method” (priority 2006, published 2008)", "key": {"NF-κB": {"system": "NF-κB", "test": "NF-κB-bla THP-1 β-lactamase reporter assay", "type": "cell-based, human"}, "female SJL mice, EAE": {"system": "female SJL mice, EAE", "test": "experimental autoimmune encephalomyelitis (EAE), PLP-induced, Example 23", "type": "in vivo, mouse", "conditions": "for course of EAE compared to vehicle-treated mice: 0.1 mg q.d. po from clinical onset; for mean cumulative score, treatment period (day 1 to 30): vehicle 24.8±7.8; for mean cumulative score, follow-up period (day 31 to day 54): vehicle 22.7±15.8"}, "[1]": {"test": "metabolic stability in liver microsomes: mouse", "conditions": "10 min", "protocol": "(§1) The protocol was performed as follows. […] (2) Set up samples as follows. […] (4) The internal standard/acetonitrile solution."}, "[2]": {"test": "metabolic stability in liver microsomes: human", "conditions": "10 min", "protocol": "as §1"}, "MG-63 cells": {"system": "MG-63 cells", "test": "reversal of glucocorticoid effects in MG-63 osteosarcoma cells", "type": "cell-based, human", "conditions": "concentration not given"}, "[3]": {"conditions": "Homo sapiens, THP-1, read-out: IC50, this protocol"}, "[4]": {"conditions": "anti-inflammatory activity in this protocol, read-out: IC50"}, "[5]": {"conditions": "0.1 mg q.d. po from clinical onset to day 30"}}, "note": "Entries after “also recorded” stand apart in the source; their conditions may differ. Where two headings read alike, the source gives them in different places."}
{"compound": "C[C@]12CC[C@H]3[C@@H](CC=C4C[C@@H](O)CC[C@@]43C)[C@@H]1C[C@@H](Br)[C@@H]2O", "note": "[16α-bromo-3β,17β-dihydroxyandrost-5-ene]", "values": [{"measurement": "IC50", "setting": "NF-κB; [3]", "value": "> 10", "unit": "µM"}]}
{"compound": "C[C@]12CCCCC1=CC[C@@H]1[C@@H]2CC[C@]2(C)C(=O)[C@H](F)C[C@@H]12", "note": "[16α-fluoroandrost-5-ene-17-one]", "values": [{"measurement": "IC50", "setting": "NF-κB; [3]", "value": 30, "unit": "µM"}]}
{"compound": "C[C@]12CCCCC1CC[C@@H]1[C@@H]2CC[C@]2(C)C(=O)[C@H](F)C[C@@H]12", "note": "(stereo partly drawn) [16α-fluoroandrostane-17-one]", "values": [{"measurement": "IC50", "setting": "NF-κB; [3]", "value": "> 10", "unit": "µM"}]}
{"compound": "C[C@]12CC[C@H](O)CC1=CC[C@@H]1[C@@H]2CC[C@]2(C)C(=O)[C@@H](Br)C[C@@H]12", "note": "[16β-bromo-3β-hydroxyandrost-5-ene-17-one]", "values": [{"measurement": "IC50", "setting": "NF-κB; [3]", "value": "> 10", "unit": "µM"}]}
{"compound": "C[C@]12CC[C@H](O)C[C@@H]1CC[C@@H]1[C@@H]2CC[C@]2(C)C(=O)[C@@H](Br)C[C@@H]12", "note": "[16β-bromoepiandrosterone]", "values": [{"measurement": "maximum NF-κB inhibition", "setting": "NF-κB; this protocol", "value": 100, "unit": "%"}]}
{"compound": "C[C@]12CCCCC1=C[C@H](O)[C@@H]1[C@@H]2CC[C@]2(C)C(=O)[C@@H](F)C[C@@H]12", "note": "[16β-fluoroandrost-5-ene-7β-ol-17-one]", "values": [{"measurement": "IC50", "setting": "NF-κB; [4]", "value": 0.0015, "unit": "µM"}]}
{"compound": "C#C[C@]1(O)CC[C@H]2[C@@H]3CCC4=CC(=O)CC[C@]4(C)[C@H]3CC[C@@]21C", "note": "[17α-ethynylandrost-4-ene-3-one-17β-ol]", "values": [{"measurement": "maximum NF-κB inhibition", "setting": "NF-κB; this protocol", "value": 80, "unit": "%"}, {"measurement": "IC50", "setting": "NF-κB; this protocol, read-out: IC50", "value": 2.9, "unit": "µM"}]}
{"compound": "C[C@]12CC[C@H](O)CC1=CC[C@@H]1[C@@H]2CC[C@@]2(C)[C@H]1CC[C@@]2(O)C(F)(F)F", "note": "[17α-trifluoromethylandrost-5-ene-3β,17β-diol]", "values": [{"measurement": "course of EAE compared to vehicle-treated mice", "setting": "female SJL mice, EAE", "value": "significantly improved course of EAE"}]}
{"compound": "CC12CCC(O)CC1CCC1C2CCC2(C)C1CCC2(O)C(F)(F)F", "note": "(stereo not drawn) [17α-trifluoromethylandrostane-3α,17β-diol]", "values": [{"measurement": "IC50", "setting": "NF-κB; [4]", "value": 0.19, "unit": "µM"}]}
{"compound": "C#C[C@@]1(O)CC[C@H]2[C@@H]3[C@@H](O)C=C4C[C@@H](O)CC[C@]4(C)[C@H]3CC[C@@]21C", "note": "[17β-ethynylandrost-5-ene-3β,7β,17α-triol]", "values": [{"measurement": "EAE incidence at the end of the treatment period", "setting": "female SJL mice, EAE; 0.1 mg q.d. po", "value": 57.1, "unit": "%"}, {"measurement": "course of EAE compared to vehicle-treated mice", "setting": "female SJL mice, EAE", "value": "trend toward reduced cumulative score and duration"}, {"measurement": "duration of the disease", "setting": "female SJL mice, EAE; 0.1 mg q.d. po from clinical onset to day 30, vehicle 12.3±4.3", "value": "7 ± 7.9", "unit": "days"}, {"measurement": "mean cumulative score, treatment period (day 1 to 30)", "setting": "female SJL mice, EAE; [5]", "value": "14.9±17.6"}, {"measurement": "EAE incidence at the end of the follow-up period", "setting": "female SJL mice, EAE; after end of treatment", "value": 85.7, "unit": "%"}, {"measurement": "mean cumulative score, follow-up period (day 31 to day 54)", "setting": "female SJL mice, EAE; after end of treatment", "value": "18.4±20.6"}]}
{"compound": "C[C@]12CC[C@H]3[C@@H](CCC4C[C@@H](O)CC[C@@]43C)[C@@H]1CC[C@@H]2C(=O)CN", "note": "(stereo partly drawn) [17β-glycylandrostane-3β-ol]", "values": [{"measurement": "IC50", "setting": "NF-κB; [3]", "value": 0.42, "unit": "µM"}]}
{"compound": "Cc1cc(C)c(/C=C2\\C(=O)Nc3ccccc32)[nH]1", "note": "[SU5416, Z-3-[(2,4-dimethylpyrrol-5-yl)methylidenyl]-2-indolinone, reference compound]", "values": [{"measurement": "course of EAE compared to vehicle-treated mice", "setting": "female SJL mice, EAE", "value": "very similar to that observed in the vehicle-treated mice; also recorded: ineffective"}, {"measurement": "mean cumulative score, treatment period (day 1 to 30)", "setting": "female SJL mice, EAE; [5]", "value": "25.5±8.9"}, {"measurement": "mean cumulative score, follow-up period (day 31 to day 54)", "setting": "female SJL mice, EAE; after end of treatment", "value": "35.5±13.2"}]}
{"compound": "C[C@]12CC[C@H]3[C@@H]([C@H](O)C=C4C[C@H](O)CC[C@@]43C)[C@@H]1C[C@@H](O)[C@@H]2O", "note": "[androst-5-ene-3α,7α,16α,17β-tetrol]", "values": [{"measurement": "parent remaining mouse microsomes", "setting": "[1]", "value": "100% (10 min)"}, {"measurement": "parent remaining human microsomes", "setting": "[2]", "value": "100% (10 min)"}]}
{"compound": "C[C@]12CC[C@H]3[C@@H](CC=C4C[C@H](O)CC[C@@]43C)[C@@H]1CC[C@@H]2O", "note": "[androst-5-ene-3α,17β-diol]", "values": [{"measurement": "IC50", "setting": "NF-κB; [3]", "value": "> 10", "unit": "µM"}]}
{"compound": "C[C@]12CC[C@H](O)CC1=C[C@@H](O)[C@@H]1[C@@H]2CC[C@]2(C)C(=O)[C@H](O)C[C@@H]12", "note": "[androst-5-ene-3β,7α,16α-triol-17-one]", "values": [{"measurement": "NF-κB activity compared to control cells", "setting": "NF-κB; compound increased NF-κB activity", "value": 140, "unit": "%"}, {"measurement": "IC50", "setting": "NF-κB; compounds increased NF-κB activity, read-out: IC50 of compounds that increased NF-κB activity", "value": 0.0013, "unit": "µM"}]}
{"compound": "C[C@]12CC[C@H]3[C@@H](C(=NO)C=C4C[C@@H](O)CC[C@@]43C)[C@@H]1CC[C@@H]2O", "note": "[androst-5-ene-3β,17β-diol-7-oxime]", "values": [{"measurement": "reversal of the decrease in osteoprotegerin in the presence of 30 nM dexamethasone", "setting": "MG-63 cells", "value": "partially reversed"}]}
{"compound": "C[C@]12C[C@H](O)[C@H]3[C@@H](CC=C4C[C@@H](O)CC[C@@]43C)[C@@H]1CC[C@@H]2O", "note": "[androst-5-ene-3β, 11β,17β-triol]", "values": [{"measurement": "IC50", "setting": "NF-κB; [3]", "value": "> 10", "unit": "µM"}]}
{"compound": "C[C@]12CC[C@H]3[C@@H](CC=C4C[C@@H](O)CC[C@@]43C)[C@@H]1CC[C@@H]2OC(=O)CCC(=O)O", "note": "[androst-5-ene-3β-ol-17β-succinyl ester]", "values": [{"measurement": "IC50", "setting": "NF-κB; [4]", "value": 0.0002, "unit": "µM"}]}
{"compound": "C[C@]12CC[C@H](O)CC1CC[C@@H]1[C@@H]2CC[C@]2(C)C(=NO)[C@@H](O)C[C@@H]12", "note": "(stereo partly drawn) [androstane-3β,16β-diol-17-oxime]", "values": [{"measurement": "IC50", "setting": "NF-κB; this protocol, read-out: IC50", "value": 1.9, "unit": "µM"}]}
{"compound": "TNFα", "values": [{"measurement": "EC50 for activation of NF-κB", "setting": "NF-κB; positive control assays, 1 hour β-lactamase substrate incubation", "value": 0.20, "unit": "ng/mL"}]}
